{
  "source": "patent US9518976B2",
  "about": "“Methods for identifying or assaying for agents that increase beta-cell proliferation, insulin secretion, insulin sensitivity, glucose tolerance and decrease fat mass” (The Trustees of Columbia University in The City of New York, priority 2006, dated 2016)",
  "type_in_all_cases": "in vivo, mouse",
  "key": {"[1]": {"system": "GTG-induced obesity in wt mice", "assay": "Osteocalcin subcutaneous infusion in gold thioglucose (GTG)-injected wt mice: body weight gain", "conditions": "GTG-injected wild type mice; for body weight gain: 1 ng/hr s.c. osmotic pump for 28 days, from 7 days on, vs PBS", "protocol": "FIG. 14. […] Wt mice were injected with gold thioglucose (GTG) or vehicle to induce hyperphagia and obesity. Two weeks later they were implanted with subcutaneous osmotic pumps infusing […] of recombinant osteocalcin or PBS for 28 days before. Body weight gain was recorded thereafter at indicated days.\nThe effect of uncarboxylated osteocalcin on GTG-induced obesity was investigated (FIG. 14). Wild type mice were injected with gold thioglucose (GTG) to induce hyperphagia and obesity or vehicle. Two weeks later they were implanted with subcutaneous osmotic pumps infusing 1 ng/hr of recombinant uncarboxylated osteocalcin or PBS for 28 days. […] At 28 days, body weight was reduced by about 15% with uncarboxylated osteocalcin treatment."}, "[2]": {"assay": "Osteocalcin subcutaneous infusion in wt mice: body weight and gonadal fat pad mass", "protocol": "FIG. 13. […] 1) Indicated doses of recombinant osteocalcin or PBS were infused subcutaneously for 28 days in wt mice. Body weight was recorded at indicated days. (2). Gonadal fat pad mass was measured after 28 days.\nIn another in vivo experiment, the effect of uncarboxylated osteocalcin on body weight and fat pad mass was monitored (FIG. 13). Wild type mice were infused subcutaneously for 28 days with PBS or uncarboxylated osteocalcin at 0.3, 1 or 3 ng/hour. […] (FIG. 13) Gonadal fat pad mass, measured after 28 days, decreased by about % 18 with 3 ng/hour uncarboxylated osteocalcin treatment."}, "Wild type mice": {"system": "Wild type mice", "assay": "Osteocalcin subcutaneous infusion in wt mice: glycemia", "conditions": "0.3, 1 and 3 ng/hour subcutaneous infusion for 28 days, vs PBS", "protocol": "FIG. 10. […] Indicated doses of recombinant osteocalcin or PBS were infused subcutaneously for 28 days in wt mice. Blood glucose was measured at indicated days.\nAn in vivo experiment was conducted in which the effect of undercarboxylated osteocalcin on glycemia was monitored. Wild type mice were infused with 3 different amounts of mouse recombinant undercarboxylated osteocalcin or placebo (PBS) subcutaneously for 28 days (0.3, 1 and 3 ng/hour)."}, "[3]": {"conditions": "listed as recombinant osteocalcin"}},
  "note": "Ends that are not written are not given here.",
  "data": [
    {"substance": "uncarboxylated osteocalcin: Recombinant mouse osteocalcin bacterially produced, cleaved from GST with thrombin; completely undercarboxylated at all three sites (YLGASVPSPDPLEPTREQCELNPACDELSDQYGLKTAYKRIYGITI; not fully specified; ends and bridges not checked; UniProt P86546 50-95, looked up)", "values": [
      {"measurement": "body weight gain", "setting": "[1]", "value": "significantly reduced"},
      {"measurement": "body weight gain", "setting": "[1]; [3]", "value": "prevents GTG-induced obesity"},
      {"measurement": "body weight reduction", "setting": "[1]; 1 ng/hr s.c., at 28 days", "value": "about 15%"},
      {"measurement": "gonadal fat pad mass decrease", "setting": "[2]; wild type mice, 3 ng/hour s.c., after 28 days", "value": "~18", "unit": "%"},
      {"measurement": "body weight", "setting": "[2]; wild type mice, 0.3, 1 or 3 ng/hour s.c. for 28 days, highest dose most effective", "value": "slightly reduced"},
      {"measurement": "gonadal fat pad mass", "setting": "[2]; wild type mice, the other doses (0.3, 1 ng/hour), 28 days", "value": "did not significantly decrease"},
      {"measurement": "fat mass", "setting": "[2]; wt mice, indicated doses s.c. for 28 days (FIG. 13 legend)", "value": "decreases fat mass"},
      {"measurement": "glycemia (blood glucose)", "setting": "Wild type mice; [3]", "value": "decreases glycemia"},
      {"measurement": "glycemia (blood glucose)", "setting": "Wild type mice; listed as undercarboxylated osteocalcin", "value": "decreased glycemia"}
    ]}
  ]
}
